Drawing on patent publication US20170334899A1, “AMINO-SUBSTITUTED ISOTHIAZOLES” (Bayer Pharma Aktiengesellschaft, priority 2014, published 2017), this text covers IC50 for 27 molecules.

Several values for one entry are separate records, joined by “and”; a condition that tells them apart may be missing. Equal entries are not always repeated.

For the experiment, the target named is T1, catalytic domain of human Bub1 (amino acids 704-1085) (Homo sapiens, UniProt O43683).
T1 construct: catalytic domain of human Bub1 (amino acids 704-1085); His6 (N); made in house; host or cells: insect cells (Hi5)
T1 sequence (O43683 704-1085): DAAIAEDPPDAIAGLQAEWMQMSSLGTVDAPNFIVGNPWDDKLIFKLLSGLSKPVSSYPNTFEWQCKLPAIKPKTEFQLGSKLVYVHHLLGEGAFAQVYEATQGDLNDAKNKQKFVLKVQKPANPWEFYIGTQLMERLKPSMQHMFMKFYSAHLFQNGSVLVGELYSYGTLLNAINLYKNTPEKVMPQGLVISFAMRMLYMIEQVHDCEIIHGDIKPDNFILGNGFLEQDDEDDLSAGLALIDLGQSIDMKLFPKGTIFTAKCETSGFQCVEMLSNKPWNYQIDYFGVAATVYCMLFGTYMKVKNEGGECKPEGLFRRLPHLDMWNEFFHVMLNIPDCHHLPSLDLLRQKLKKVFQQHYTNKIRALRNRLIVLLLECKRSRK
Description: Bub1 kinase assay (TR-FRET). Type of experiment: biochemical. The note with it: 10 μM ATP, avg, read-out: Bub1 avg (IC50 [mol/l]). Put shortly: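 Readout is the 665/620 nm TR-FRET ratio from anti-phosphoserine antibody, Eu-labelled anti-mouse IgG and streptavidin-XL665, scaled between no-enzyme and uninhibited controls. Reaction: 1 μM biotinylated peptide, 10 μM ATP, 60 min, 22 °C, after 15 min compound preincubation with His6-Bub1 (704-1085, insect-expressed, ~200 ng/ml).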
As for `Cc1nsc(Nc2cnc(C(F)(F)F)cn2)c1C(=O)Nc1ccc(OCCNCCF)nc1` [Example 321, N-(6-{2-[(2-fluoroethyl)amino]ethoxy}pyridin-3-yl)-3-methyl-5-{[5-(trifluoromethyl)pyrazin-2-yl]amino}-1,2-thiazole-4-carboxamide], the IC50 was determined as 14 µM. The value for `Cc1nsc(Nc2cc(C#N)ccn2)c1C(=O)Nc1ccc(OC2CCN(C(=O)OC(C)(C)C)CC2)nc1` [Example 23, tert-Butyl 4-({5-[({5-[(4-cyanopyridin-2-yl)amino]-3-methyl-1,2-thiazol-4-yl}-carbonyl)amino]pyridin-2-yl}oxy)piperidine-1-carboxylate] was at least 20 µM; that for `Cc1nsc(Nc2cncc(C(F)(F)F)n2)c1C(=O)Nc1ccc(F)c(OC2CCN(CC(F)F)CC2)c1` [Example 268, N-(3-{[1-(2,2-difluoroethyl)piperidin-4-yl]oxy}-4-fluorophenyl)-3-methyl-5-{[6-(trifluoromethyl)pyrazin-2-yl]amino}-1,2-thiazole-4-carboxamide] was 19 µM.

With `Cc1nsc(Nc2cnc(C(F)(F)F)cn2)c1C(=O)Nc1ccc(OCCO)nc1` [Example 277, N-[6-(2-hydroxyethoxy)pyridin-3-yl]-3-methyl-5-{[5-(trifluoromethyl)pyrazin-2-yl]amino}-1,2-thiazole-4-carboxamide], the IC50 was > 20 µM and 18 µM. The same measure for `Cc1nsc(Nc2cc(C#N)ccn2)c1C(=O)Nc1ccc(OC2CCN(CC(F)(F)F)CC2)nc1` [Example 25, 5-[(4-Cyanopyridin-2-yl)amino]-3-methyl-N-(6-{[1-(2,2,2-trifluoroethyl)piperidin-4-yl]oxy}pyridin-3-yl)-1,2-thiazole-4-carboxamide]: at least 20 µM; for `Cc1nsc(Nc2cc(C#N)ccn2)c1C(=O)Nc1ccc(OC2CCN(CC(F)F)CC2)nc1` [Example 263, 5-[(4-cyanopyridin-2-yl)amino]-N-(6-{[1-(2,2-difluoroethyl)piperidin-4-yl]oxy}pyridin-3-yl)-3-methyl-1,2-thiazole-4-carboxamide]: over 20 µM; for `Cc1nsc(Nc2cnc(C(F)(F)F)cn2)c1C(=O)Nc1ccc(F)c(OCC2CCN(CC(F)(F)F)CC2)c1` [Example 310, N-(4-fluoro-3-{[1-(2,2,2-trifluoroethyl)piperidin-4-yl]methoxy}phenyl)-3-methyl-5-{[5-(trifluoromethyl)pyrazin-2-yl]amino}-1,2-thiazole-4-carboxamide]: at least 20 µM. The value for `Cc1nsc(Nc2cnc(C(F)(F)F)cn2)c1C(=O)Nc1ccc(F)c(OCC2CCN(CCC(F)(F)F)CC2)c1` [Example 311, N-(4-fluoro-3-{[1-(3,3,3-trifluoropropyl)piperidin-4-yl]methoxy}phenyl)-3-methyl-5-{[5-(trifluoromethyl)pyrazin-2-yl]amino}-1,2-thiazole-4-carboxamide] was over 20 µM; that for `Cc1nsc(Nc2cnc(C(F)(F)F)cn2)c1C(=O)Nc1ccc(OC2CCN(CC(F)(F)F)C2)nc1` (stereo not drawn) [Example 297, 3-methyl-N-(6-{[1-(2,2,2-trifluoroethyl)pyrrolidin-3-yl]oxy}pyridin-3-yl)-5-{[5-(trifluoromethyl)pyrazin-2-yl]amino}-1,2-thiazole-4-carboxamide] was over 20 µM. The value for `Cc1nsc(Nc2cnc(C(F)(F)F)cn2)c1C(=O)Nc1ccc(F)c(OC2CCN(CC(F)F)C2)c1` (stereo not drawn) [Example 314, N-(3-{[1-(2,2-difluoroethyl)pyrrolidin-3-yl]oxy}-4-fluorophenyl)-3-methyl-5-{[5-(trifluoromethyl)pyrazin-2-yl]amino}-1,2-thiazole-4-carboxamide] was at least 20 µM; that for `Cc1nsc(Nc2cnc3ccccc3n2)c1C(=O)Nc1cccc(NS(=O)(=O)C2CCN(CC(F)(F)F)C2)c1` (stereo not drawn) [Example 289, 3-methyl-5-(quinoxalin-2-ylamino)-N-[3-({[1-(2,2,2-trifluoroethyl)pyrrolidin-3-yl]sulfonyl}amino)phenyl]-1,2-thiazole-4-carboxamide] was over 20 µM; that for `Cc1nsc(Nc2cncc(C(F)(F)F)n2)c1C(=O)Nc1ccc(F)c(OC2CCN(CCF)CC2)c1` [Example 269, N-(4-fluoro-3-{[1-(2-fluoroethyl)piperidin-4-yl]oxy}phenyl)-3-methyl-5-{[6-(trifluoromethyl)pyrazin-2-yl]amino}-1,2-thiazole-4-carboxamide] was over 20 µM. For `Cc1nsc(Nc2cnc(C(F)(F)F)cn2)c1C(=O)Nc1ccc(N(C)C)c(OCCCN(C)CC(F)(F)F)c1` [Example 299, N-[4-(dimethylamino)-3-{3-[methyl(2,2,2-trifluoroethyl)amino]propoxy}phenyl]-3-methyl-5-{[5-(trifluoromethyl)pyrazin-2-yl]amino}-1,2-thiazole-4-carboxamide], the IC50 was over 20 µM. The value for `Cc1nsc(Nc2cncc(C(F)(F)F)n2)c1C(=O)Nc1ccc(OC2CCN(CCC(F)(F)F)CC2)nc1` [Example 304, 3-methyl-5-{[6-(trifluoromethyl)pyrazin-2-yl]amino}-N-(6-{[1-(3,3,3-trifluoropropyl)piperidin-4-yl]oxy}pyridin-3-yl)-1,2-thiazole-4-carboxamide] was over 20 µM; that for `Cc1nsc(Nc2cnc(C(F)(F)F)cn2)c1C(=O)Nc1ccc(F)c(OC2CCN(CC(F)F)CC2)c1` [Example 265, N-(3-{[1-(2,2-difluoroethyl)piperidin-4-yl]oxy}-4-fluorophenyl)-3-methyl-5-{[5-(trifluoromethyl)pyrazin-2-yl]amino}-1,2-thiazole-4-carboxamide] was over 20 µM; that for `Cc1nsc(Nc2cnc(C(F)(F)F)cn2)c1C(=O)Nc1ccc(OCCNCC(F)F)nc1` [Example 305, N-(6-{2-[(2,2-difluoroethyl)amino]ethoxy}pyridin-3-yl)-3-methyl-5-{[5-(trifluoromethyl)pyrazin-2-yl]amino}-1,2-thiazole-4-carboxamide] was 19 µM. The value for `Cc1nsc(Nc2cncc(C(F)(F)F)n2)c1C(=O)Nc1ccc(OCCO)nc1` [Example 276, N-[6-(2-hydroxyethoxy)pyridin-3-yl]-3-methyl-5-{[6-(trifluoromethyl)pyrazin-2-yl]amino}-1,2-thiazole-4-carboxamide] was over 20 µM; that for `CCN1CCN(C(=O)c2ccc(NC(=O)c3c(C)nsc3Nc3cnc(C(F)(F)F)cn3)cc2)CC1` [Example 261, N-{4-[(4-ethylpiperazin-1-yl)carbonyl]phenyl}-3-methyl-5-{[5-(trifluoromethyl)pyrazin-2-yl]amino}-1,2-thiazole-4-carboxamide] was over 20 µM.

In the case of `Cc1nsc(Nc2ccc(C#N)cn2)c1C(=O)Nc1cccc(C(=O)NC(C)C)c1` [Example 255, 5-[(5-cyanopyridin-2-yl)amino]-N-[3-(isopropylcarbamoyl)phenyl]-3-methyl-1,2-thiazole-4-carboxamide], the IC50 was over 20 µM. The same measure for `Cc1nsc(Nc2cnc(C(F)(F)F)cn2)c1C(=O)Nc1ccc(C(=O)NC2CCN(CC(F)F)CC2)cc1` [Example 259, N-(4-{[1-(2,2-difluoroethyl)piperidin-4-yl]carbamoyl}phenyl)-3-methyl-5-{[5-(trifluoromethyl)pyrazin-2-yl]amino}-1,2-thiazole-4-carboxamide]: over 20 µM; for `COC(=O)CCc1cccc(NC(=O)c2c(C)nsc2Nc2cnc3ccccc3n2)c1` [Example 257, methyl 3-[3-({[3-methyl-5-(quinoxalin-2-ylamino)-1,2-thiazol-4-yl]carbonyl}amino)phenyl]propanoate]: over 20 µM. The value for `Cc1nsc(Nc2cnc(C(F)(F)F)cn2)c1C(=O)Nc1ccc(C(=O)NC2CN(CC(F)F)C2)cc1` [Example 271, N-(4-{[1-(2,2-difluoroethyl)azetidin-3-yl]carbamoyl}phenyl)-3-methyl-5-{[5-(trifluoromethyl)pyrazin-2-yl]amino}-1,2-thiazole-4-carboxamide] was over 20 µM; that for `Cc1nsc(Nc2cnc3ccccc3n2)c1C(=O)Nc1cccc(NS(=O)(=O)C2CN(CC(F)(F)F)C2)c1` [Example 285, 3-methyl-5-(quinoxalin-2-ylamino)-N-[3-({[1-(2,2,2-trifluoroethyl)azetidin-3-yl]sulfonyl}amino)phenyl]-1,2-thiazole-4-carboxamide] was over 20 µM; that for `Cc1nsc(Nc2cnc(C(F)(F)F)cn2)c1C(=O)Nc1ccc(C(=O)N2CCN(CC(F)(F)F)CC2)cc1` [Example 260, 3-methyl-N-(4-{[4-(2,2,2-trifluoroethyl)piperazin-1-yl]carbonyl}phenyl)-5-{[5-(trifluoromethyl)pyrazin-2-yl]amino}-1,2-thiazole-4-carboxamide] was over 20 µM.

With `Cc1nsc(Nc2cnc3ccccc3n2)c1C(=O)Nc1cccc(NS(=O)(=O)C2CCN(CCC(F)(F)F)CC2)c1` [Example 283, 3-methyl-5-(quinoxalin-2-ylamino)-N-[3-({[1-(3,3,3-trifluoropropyl)piperidin-4-yl]sulfonyl}amino)phenyl]-1,2-thiazole-4-carboxamide], the IC50 is over 20 µM.

For the molecule `Cc1nsc(Nc2cnc(C(F)(F)F)cn2)c1C(=O)Nc1ccc(C(=O)N2CCN(C)CC2)cc1` [Example 262, 3-methyl-N-{4-[(4-methylpiperazin-1 yl)carbonyl]phenyl}-5-{[5-(trifluoromethyl)pyrazin-2-yl]amino}-1,2-thiazole-4-carboxamide], the IC50 is over 20 µM. Regarding `Cc1nsc(Nc2cnc(C(F)(F)F)cn2)c1C(=O)Nc1ccc(F)c(OC2CCN(CC(F)(F)F)CC2)c1` [Example 264, N-(4-fluoro-3-{[1-(2,2,2-trifluoroethyl)piperidin-4-yl]oxy}phenyl)-3-methyl-5-{[5-(trifluoromethyl)pyrazin-2-yl]amino}-1,2-thiazole-4-carboxamide], the IC50 is over 20 µM.
